Data as given in patent US20260242390A1, “TOTAL SYNTHESES OF PORTIMINE A AND ANALOGUES THEREOF AS SMALL MOLECULE MODULATORS OF NMD3” (priority 2023, published 2026).
“Also recorded” adds a separate entry of the source. Read-outs that look alike come from different tables or passages of the source.

System: Jurkat cells
Experiment: Cell viability / toxicity in Jurkat cells
Type: cell-based, human
Details: for IC50: Homo sapiens, read-out: IC50 to Jurkat cells; for cell toxicity in leukemia (Jurkat) cancer cell line: 36-hour treatment; for toxicity to Jurkat cells: pM-nM concentration range (0.23 pM to 1 uM), 12 hr
Excerpt: FIG. 1. Portimine A is non-toxic to primary human PBMCs. Portimine A and its functional analogs show stereo-selective acute toxicity in cancer cells. […] (B) Structure of portimine related analogs: phenyl-portimine A (Ph-PA, 36) and epi-portimine A (ePA, 38). Structure of fully functionalized portimine A-based epimeric probe pair: portimine A-diazirine-alkyne (PA-DA, 35-2) and epi-portimine A-diazirine-alkyne (ePA-DA, 35-1). (C) Cell viability analysis of portimine A and analogs. […] All presented data as mean of biological replicated experiments (n=3). […]
Structurally related negative control ePA and PB are non-toxic in all cell types in the current concentrate range. PBMCs (25k per well), Jurkat (10k per well). […]
• 1) Portimine A and its functional analogs show stereo-selective acute toxicity in cancer cells (FIG. 1). […] (B) Structure of portimine related analogs: phenyl-portimine A (Ph-PA, 36) and epi-portimine A (ePA, 38). Structure of fully functionalized portimine A-based epimeric probe pair: portimine A-diazirine-alkyne (PA-DA, 35-2) and epi-portimine A-diazirine-alkyne (ePA-DA, 35-1). (C) Cell viability analysis of portimine A and analogs. […] All presented data as mean of biological replicated experiments (n=3). […] Structurally related negative control ePA and PB are non-toxic in all cell types in the current concentrate range. PBMCs (25k per well), Jurkat (10k per well). […] Cell cycle analysis in Jurkat cells (FIG. 2). […] (A) PA and Ph-PA show less toxic to healthy PBMCs compared to Jurkat cells. […] (B) Immunoblot of caspase-3 in Jurkat and PBMCs with indicated conditions. […] (A) Pharmacokinetic studies of mouse intraperitoneal (i.p.) and oral (p.o.) administration for portimine (n=3). […] Impact of PA [0.3 or 1 mg/kg intraperitoneally] on MC38 tumor growth in WT mice (n=6). (C) Kaplan-Myer survival curve of WT MC38 tumor-bearing mice (n=6) after treatment with PA as described in (D). Mice were euthanized when tumor area exceeded 2000 mm^3. Statistical analysis was performed using ANOVA analysis followed by multiple comparisons test, * p≤0.05. Treatment condition: Jurkat (60 M per condition); PA-DA/ePA-DA concentration: 0.5 uM, PA or ePA: 5 uM; Incubate with probe with or without competitors (PA, ePA) for 30 min; UV irradiated for 20 min. (0.5 uM PA-DA add a no-UV condition), Standard pulldown & biotin-enrichment and western blot analysis (Elute condition: 2× sample buffer+500 uM biotin, boil for 20 mins); Primary antibody NMD3 (ProteinTech, 1:150), Actin (BioRad, 1:10000). […] Chemical proteomic profiling with PA-DA in Jurkat cells (A, B, C, G) and HCC1806 cells (D, E, F, H) show NMD3 is the primary target candidate of portimine A. […] (I, J) Confirmation of PA-DA engagement of NMD3 in Jurkat and HCC1806 cells. […] Treatment condition: Jurkat (5M per well). Portimine A concentration: 2 nM-1000 nM; In total treat cell for 12 hours. […] Protein degradation of p53, Mcl1, Bid, Bim, Noxa can be rescued by MG132 or Epoxomicin. (B) NMD3 mRNA increased after PA treatment, but not ePA control compound. […] (A) Immunoblot showing reduced NMD3 levels in shNMD3 Jurkat and HeLa cells. […] Data represents mean±SD of biologically replicated experiments (n=3). […] Cell lysates were fractionated by sucrose gradient (5-50%) and each fraction were analyzed by western blot. eIF6 levels increase in 60S subunit fraction and decrease in ribosome-free fractions after PA treatment. RPS6, a 40S and polysome subunits marker, is decreased in polysome fractions after PA treatment. Results are representative of three independent experiments. […] Relative protein levels in each fraction were normalized to the peak fraction of the indicated protein from the DMSO cells and plotted. Data represents mean±SD of biologically replicated experiments (n=3). Statistical analysis was performed using multiple unpaired Student t-test. * p≤0.05; ** p≤0.01; *** p≤0.005; **** p≤0.0001. […]

SMILES	IC50 (Jurkat, 12 h)	IC50 (after 12 hr, Jurkat 10k per well, 0.23 pM to 1 uM)	cell toxicity in leukemia (Jurkat) cancer cell line	toxicity to Jurkat cells
C=CC1=C[C@@H]2[C@@H]3O[C@]4(CC[C@H](O4)C(C)C[C@@H](O)C3=O)CC(O)C3=NCC[C@@]32CC1 (stereo partly drawn) [PA, portimine A]	~2 nM	–	–	–
CC1C[C@@H](O)C(=O)[C@H]2O[C@]3(CC[C@@H]1O3)CC(O)C1=NCC[C@@]13CCC(c1ccccc1)=C[C@H]23 (stereo partly drawn) [Ph-PA, phenyl-portimine A]	–	~2 nM	–	–
C=CC1=C[C@@H]2[C@@H]3OC4(CC[C@H](O4)C(C)C[C@@H](O)C3=O)CC(=O)C3=NCC[C@@]32CC1 (stereo partly drawn) [PB, portimine B]	–	–	minimal effects	non-toxic; also recorded: non-toxicity
C=CC1=C[C@@H]2[C@@H]3O[C@]4(CC[C@H](O4)C(C)C[C@@H](O)C3=O)C[C@@H](O)C3=NCC[C@@]32CC1 (stereo partly drawn) [ePA, epi-portimine A]	–	–	minimal effects	non-toxic; also recorded: non-toxicity
